Where two headings read alike, the source gives them in different places.
Key:
HCV genotype 1b replicon = assay: microbe, parasite or virus in culture; type: cell-based; conditions: read-out: HCV Replicon EC50
Protocol: Huh-7-derived cell line (Zluc) that harbors an HCV genotype 1b replicon and a luciferase reporter gene was grown in Dulbecco's Modified Eagle Medium (DMEM) supplemented with 10% fetal bovine serum, 2 mM GlutaMAX, 1% MEM nonessential amino acids, 100 IU/mL penicillin, 100 μg/mL streptomycin, and 0.5 mg/mL Geneticin® (G418). For dose response testing the cells were seeded in 96-well plates at 7.5×10^3 cells per well in a volume of 50 μL, and incubated at 37° C./5% CO2. Drug solutions were made up freshly in Huh-7 media as 2× stocks. Ten additional 5-fold dilutions were prepared from these stocks in DMEM without G418. At least three hours after Zluc cells were seeded, drug treatment was initiated by adding 50 μL of drug dilutions to the plates in duplicate. […] Cells were then incubated at 37° C./5% CO2. Alternatively compounds were tested at two concentrations (10 nM and 100 nM). […] For this, media was removed from the plates via gentle tapping. Fifty microliters of ONE-glo luciferase assay reagent was added to each well. […] The EC50 values were calculated from dose response curves from the resulting best-fit equations determined by Microsoft Excel and XLfit 4.1 software.

Huh-7 cells = assay: Release of active metabolite in Huh-7 cells; type: in vitro ADME; conditions: intracellular triphosphate, 10 μM test compound
Protocol: Huh-7 cells were plated in 1 mL culture medium (DMEM, containing glucose, L-glutamine and sodium pyruvate, 10% FBS, 100 IU/mL penicillin, 100 μg/mL streptomycin, 2 mM GlutaMAX, 1% MEM non-essential amino acids) at the concentration 0.8, 0.4 and 0.2 million cells per well on 6 well plates for 24, 48 and 72 hr treatment, respectively. Plated cells were incubated overnight at 37° C. in an incubator.
The following morning the test compound was diluted to 20 μM from a stock solution in DMSO in fresh culture medium pre-warmed to 37° C. and 1 mL of the solution/well was added to cells. A final medium volume per well was 2.0 mL, the test compound concentration in well was 10 μM and final DMSO concentration was 0.1%.
After 24, 48 or 72 hr, the medium was carefully removed and cell monolayers were washed twice with 2 mL ice-cold PBS per well. Following the last wash, all PBS was carefully removed and 1.0 mL of extraction solution (ice-cold 70% methanol) added. The plate was tightly covered with Parafilm, plastic plate cover and Parafilm again and an intracellular content was extracted at −20° C. for 24 hr.
After 24 hr extracts were transferred into polypropylene microfuge tubes and dry on a refrigerated centrivap concentrator. Dry residues were reconstituted in 250 μL of HPLC-grade water and centrifuged at 16,000×g for 10 min. […]

[1] = Stability in human liver microsomes (HLM); type: in vitro ADME; conditions: 10 μM, 1.0 mg/mL protein, NADPH, 60 min
Protocol: (§1) Stability of Compound 1 and its diastereomer were determined in subcellular fractions (microsomes and S9) of human liver and intestine in duplicate for each matrix. Pooled liver and intestinal microsomal, intestinal and liver S9 proteins (1.0 mg/mL), suspended in incubation buffer (100 mM potassium phosphate, pH 7.4, 5 mM MgCl2, and 0.1 mM EDTA), were preincubated for 5 min at 37° C. with 10 μM of a test compound from a 10 mM stock solution in DMSO (final DMSO concentration was 0.1%); the reaction was initiated by the addition of NADPH (3 mM final concentration). At specific times (0 and 60 min), 0.1 mL samples were taken and the reaction terminated by the addition of 4 volumes of stop solution (acetonitrile with 500 ng/mL carbutamide as an internal standard). The samples were vortexed for 30 sec and then centrifuged at 16,000 g for 10 min. 100 μL of supernatants were transferred to 96 deep-well plates preloaded with 100 μL distilled water and analyzed after mixing by LC-MS/MS. The MS peak area ratio of the test compound versus the internal standard was calculated and percent unchanged test compound over 60 minutes was calculated using this ratio.

[2] = Plasma and liver pharmacokinetics following a single oral dose in CD-1 mice; type: in vivo; conditions: single oral dose in PEG 200, value at 1 μmol/kg; for Ms 2′-F, 2′-MeGTP AUC: mouse liver; for Ms Plasma 2′-F, 2′-MeG AUC / Ms Plasma 2′-F, 2′-MeG Cmax: mouse plasma
Protocol: A single oral dose of Compound 1 at 25 mg/kg in PEG 200 (dose volume 5 mL/kg) was administered to nine CD-1 male mice. Five untreated animals were used for the collection of control plasma and liver. Terminal plasma and liver samples were collected from three animals per time point at 4, 12 and 24 hours post dose. Liver specimens were collected from all animals immediately after the incision. Freezing forceps stored in liquid nitrogen were used to freeze the liver before excision.
Plasma samples were analyzed for 2′-methylguanosine (2′-MeG) by LC-MS/MS. The internal standard (1S) was 2′-MeG-D3. For protein precipitation and extraction, each plasma sample (50 μL) was treated with 500 μL of 0.2% formic acid in acetonitrile and 20 μL of the internal standard working solution. After vortexing and centrifugation, 500 μL of the sample extracts were transferred to a new plate, dried under N2 at ˜28° C. and reconstituted with 75 μL of 0.2% FA in water. The extracts were chromatographed on an Aquasil C18 column using a gradient system of 0.2% formic acid in water and acetonitrile. The analytes were detected and quantified by tandem mass spectrometry in positive ion mode on an MDS Sciex API5000 equipped with a Turbo Ionspray® interface. The calibration range was 0.500 (LLOQ) to 200 ng/mL in mouse plasma. The corresponding range for molar units is 1.68 to 673 pmol/mL.
Liver samples were analyzed for the active species 2′-methylguanosine triphosphate (2′-MeGTP) by LC-MS/MS. 2′-F, 2′-MeGTP levels were assayed by homogenizing (on ice) a known weight of mouse liver with 4× volume of 0.95 M trichloroacetic acid (TCA). Internal standard solution was added to the homogenate followed by neutralization with 20% ammonium hydroxide solution and addition of 500 μL 1% formic acid. The tissue samples were extracted by weak anion exchange solid phase extraction (SPE). Post extraction, the eluates were evaporated under nitrogen, followed by reconstitution before injection onto the LC-MS/MS system. The samples were chromatographed on a Luna NH2 column using a gradient system of ammonium acetate (1 mM to 20 mM and pH 8.0 to pH 10.0) in water and acetonitrile (70:30). The analyte was detected and quantified by tandem mass spectrometry in positive ion mode on an API4000 equipped with a Turbo Ionspray® interface. The calibration range was 10 to 10000 pmol/mL in mouse liver homogenate (50 to 50000 pmol/g of mouse liver).

[3] = Stability in HIS9 (intestinal S9); type: in vitro ADME, human; conditions: 10 μM, 1.0 mg/mL protein, NADPH, 60 min
Protocol: HLM=Human liver microsome; HIM=Human intestinal microsome; HLS9=Human liver S9 fraction; HIS9=Human […] S9 fraction; SGF=Simulated gastric fluid; SIF=Simulated intestinal fluid.
as §1

| SMILES | EC50 (HCV genotype 1b replicon; Zluc cells, HCV genotype 1b replicon, luciferase, 72 hours of incubation) [nM] | Huh-7 TP Cmax (Huh-7 cells) [pmol/mill cells] | Percent Remaining, HLM (1 hr) [1] [%] | Ms 2′-F, 2′-MeGTP AUC [2] [pmol · hr/g at 1 μmol/kg] | Ms Plasma 2′-F, 2′-MeG AUC [2] [pmol · hr/mL at 1 μmol/kg] | Ms Plasma 2′-F, 2′-MeG Cmax [2] [pmol/mL at 1 μmol/kg] | Percent Remaining, HIS9 (1 hr) [3] [%] | EC50 (HCV genotype 1b replicon; Hepatitis C virus, 72 h) [nM] |
| --- | --- | --- | --- | --- | --- | --- | --- | --- |
| CCOC(=O)OC(C)OP(=O)(N[C@@H](C)C(=O)OC(C)C)OC[C@H]1O[C@@H](n2cnc3c(OC)nc(N)nc32)[C@](C)(F)[C@@H]1O (single isomer, unassigned) [Compound 15] | < 100 | 198 | 0 | 900 | 130 | 16 | 76 | – |
| CCOC(=O)OC(C)OP(=O)(N[C@@H](C)C(=O)OC(C)C)OC[C@H]1O[C@@H](n2cnc3c(OC)nc(N)nc32)[C@](C)(F)[C@@H]1O (single isomer, unassigned) [Compound 14] | – | 410 | 0 | 1900 | 150 | 14 | 53 | < 100 |

Source: patent publication US20130064794A1, “Substituted Carbonyloxymethylphosphoramidate Compounds and Pharmaceutical Compositions for the Treatment of Viral Infections” (IDENIX PHARMACEUTICALS, INC., priority 2011, published 2013)
